# Test results published in patent publication US20230364051A1, “FORMULATIONS AND METHODS FOR IMPROVING AVIAN HEALTH” (CORNELL UNIVERSITY, priority 2022, published 2023).
# Marks after values point to notes of the source that are not given here.
# What was measured:
# [1] = system: BBM Fe-related proteins and intestinal bacterial populations; conditions: in vivo; cited from earlier work
# [2] = system: Clostridium spp.; test: Duodenal bacterial populations by PCR of 16S rDNA: Clostridium; format: in vivo, Gallus gallus; conditions: 5 wt. % inulin vs no injection and H2O injection controls, p < 0.05; duodenum, day of hatch
# Method: (§1) Cornish-cross fertile broiler eggs (Gallus gallus, n = 39) were obtained from a commercial hatchery (Moyer’s chicks, Quakertown, PA, USA). The eggs were incubated under optimal conditions at the Cornell University Animal Science Poultry Farm Incubator [18]. All animal protocols were approved by Cornell University Institutional Animal Care and Use committee (IACUC #2020-0077). At day 17 of embryonic incubation, eggs containing viable embryos were weighed and divided into 5 groups, with all treatment groups assigned eggs of similar weight frequency distribution. Each group was then injected with the specific solution (1 mL per egg) with a 21-gauge needle into the amniotic fluid. Treatments in powder form were separately diluted in DI H2O. Two treatment groups (1.25, 2.5 wt. %), two controls (H2O and non-injected), and a positive control (5 wt. % inulin) were administered. After injection, the injection holes were sealed with cellophane tape and the eggs were placed in hatching baskets such that each treatment was equally represented at each incubator location. […]
# (§2) Primers for Lactobacillus, Bifidobacterium, L. Plantarum, Clostridium, and E. coli were designed according to previously published data. […] PCR products were separated by electrophoresis on 2 wt. % agarose gel, stained with ethidium bromide, and quantified using the Quantity One 1-D analysis software (BioRad, Hercules, CA, USA).
# [3] = Pectoral muscle glycogen analysis after intraamniotic administration; format: in vivo, Gallus gallus; conditions: 5 wt. % inulin intraamniotic, day 17; pectoral muscle at hatch
# Method: (§3) Cornish-cross fertile broiler eggs (Gallus gallus, n = 39) were obtained from a commercial hatchery (Moyer’s chicks, Quakertown, PA, USA). The eggs were incubated under optimal conditions at the Cornell University Animal Science Poultry Farm Incubator [18]. All animal protocols were approved by Cornell University Institutional Animal Care and Use committee (IACUC #2020-0077). At day 17 of embryonic incubation, eggs containing viable embryos were weighed and divided into 5 groups, with all treatment groups assigned eggs of similar weight frequency distribution. Each group was then injected with the specific solution (1 mL per egg) with a 21-gauge needle into the amniotic fluid. Treatments in powder form were separately diluted in DI H2O. Two treatment groups (1.25, 2.5 wt. %), two controls (H2O and non-injected), and a positive control (5 wt. % inulin) were administered. After injection, the injection holes were sealed with cellophane tape and the eggs were placed in hatching baskets such that each treatment was equally represented at each incubator location. Immediately upon hatch (day 21), blood was taken for hemoglobin determination and all chicks were then euthanized by CO2 exposure. The small intestine, pectoral muscle, cecum, and liver were collected, immediately frozen in liquid nitrogen, and then stored in a -80° C. freezer until analysis.
# Glycogen analysis was obtained from pectoralis muscle as previously described. Briefly, the frozen pectoral muscle samples were homogenized in 8 wt. % perchloric acid. Samples were then centrifuged at 12,000 × g for 15 minutes. The supernatant was removed, and 1.0 mL of petroleum ether was added to each tube. After mixing, the petroleum ether fraction was removed and samples from the bottom layer were transferred to a 96-well plate containing 300 µL of color reagent. All samples were read at a wavelength of 450 nm in an ELISA reader and the amount of glycogen was calculated according to a standard curve. The amount of glycogen present in pectoral sample was determined by multiplying the weight of the tissue by the amount of glycogen per 1 g of wet tissue.
# [4] = Body weight and cecum weight at hatch after intraamniotic administration; format: in vivo, Gallus gallus
# Method: as §3
# [5] = system: duodenum; test: Duodenal tissue morphology examination (villi, crypts, goblet cells, Paneth cells); format: in vivo, Gallus gallus; conditions: 5 wt. % inulin intraamniotic, day 17; duodenum at hatch
# Method: as §3, with “All animal protocols were approved by Cornell University Institutional Animal Care and Use committee (IACUC #2020-0077). At day 17 of embryonic incubation, eggs containing viable embryos were weighed and divided into 5 groups, with all treatment groups assigned eggs of similar weight frequency distribution.” left out, “Two treatment groups (1.25, 2.5 wt. %), two controls (H2O and non-injected), and a positive control (5 wt. % inulin) were administered.” left out
# Intestinal morphology examination was performed as was previously described. Duodenum samples were fixed in fresh 4 wt. % (v/v) buffered formaldehyde, dehydrated, cleared, and embedded in paraffin. Serial sections were cut at 5 µm and placed on glass slides. Intestinal sections were deparaffinized in xylene, rehydrated in a graded alcohol series, stained with Alcian Blue/Periodic acid-Schiff, and examined by light microscopy. The following variables were measured in the intestine: villus height, villus width, crypt depth, Paneth cell number per crypt, Paneth cell width, goblet cell number, goblet cell diameter, types of goblet cells in the villi epithelium, and types of goblet cells within the crypts. Measurements in each segment were performed with a light microscope using CellSens Standard software (Olympus, Waltham, MA, USA).
# [6] = system: L. plantarum; test: Duodenal bacterial populations by PCR of 16S rDNA: L. plantarum; format: in vivo, Gallus gallus; conditions: 5 wt. % inulin vs H2O injected control, p < 0.05; duodenum, day of hatch
# Method: as §1, §2
# [7] = Blood hemoglobin (QuantiChrom Hemoglobin Assay) at hatch after intraamniotic administration; format: in vivo, Gallus gallus; conditions: 5 wt. % inulin intraamniotic, day 17; blood at hatch
# Method: as §3, with “All animal protocols were approved by Cornell University Institutional Animal Care and Use committee (IACUC #2020-0077). At day 17 of embryonic incubation, eggs containing viable embryos were weighed and divided into 5 groups, with all treatment groups assigned eggs of similar weight frequency distribution.” left out, “Two treatment groups (1.25, 2.5 wt. %), two controls (H2O and non-injected), and a positive control (5 wt. % inulin) were administered.” left out
# Blood was collected using micro-hematocrit heparinized capillary tubes (Fisher Scientific, Waltham, MA, USA). Blood Hb concentrations were determined spectrophotometrically using the QuantiChromTM Hemoglobin Assay (DIHB-250, BioAssay Systems, Hayward, CA, USA) following the kit manufacturer’s instructions.
# [8] = 5 wt. % inulin intraamniotic, day 17, at hatch
molecule,measurement,setting,value
O=c1c(-c2ccc(O)cc2)coc2cc(O)ccc12 [daidzein],Expression of BBM Fe-related proteins and intestinal bacterial populations,[1],affected
inulin [reference compound],Relative abundance of Clostridium spp.,[2],significantly increased
same,Average Glycogen,[3],0.002 ± 0.001 ^b mg/g
same,Average Body Weight,[4]; [8],46.04 ± 1.18 ^ab g
same,Average Cecum Weight,[4]; [8],0.43 ± 0.05 ^b g
same,Cecum weight of no injection and H2O groups compared to treated group,"[4]; 5 wt. % inulin, p < 0.05",significantly greater values
same,# Crypt Paneth Cells,[5],2.56 ± 0.09 ^c
same,Crypt Depth,[5],35.00 ± 0.43 ^b µm
same,Crypt Goblet Cell Diameter,[5],2.51 ± 0.02 ^c µm
same,Crypt Goblet Cell Number Acidic,[5],7.97 ± 0.16 ^b Unit
same,Crypt Goblet Cell Number Mixture,[5],1.19 ± 0.08 ^c Unit
same,Crypt Goblet Cell Number Neutral,[5],0.00 ± 0.00 ^a Unit
same,Crypt Goblet Cell Number Total,[5],9.15 ± 0.16 ^b Unit
same,Crypt Paneth cell Diameter,[5],1.68 ± 0.03 ^b µm
same,Villi Goblet Cell Diameter,[5],2.74 ± 0.03 ^e µm
same,Villi Goblet Cell Number Acidic,[5],16.39 ± 0.54 ^c Unit
same,Villi Goblet Cell Number Mixture,[5],6.53 ± 0.30 ^a Unit
same,Villi Goblet Cell Number Neutral,[5],0.10 ± 0.02 ^b Unit
same,Villi Goblet Cell Number Total,[5],23.02 ± 0.60 ^b Unit
same,Villus Height,[5],246.64 ± 5.14 ^a µm
same,Villus Surface Area,[5],206.92 ± 6.37 ^a mm2
same,Villus Width,[5],50.98 ± 1.03 ^a µm
same,Relative abundance of L. plantarum,[6],significantly increased
same,Average Hb,[7],9.56 ± 0.92 ^c g/dL
